Laboratory results: patent publication US12077503B2, “Substituted cyclic amides and their use as herbicides” (FMC CORPORATION, priority 2015, dated 2024)

Columns and labels:
Format in all cases: in vivo
[1] = system: redroot pigweed (Amaranthus retroflexus); assay: Test G Post-Emergence Protocol; conditions: Amaranthus retroflexus, post-emergence, 312 h; for pest or weed control at 15.625 g/ha: 15.625 g ai/ha, evaluated after 13 days (100=total damage to plant; 0=no damage to plant), read-out: Pigweed, Redroot damage rating; for pest or weed control at 62.5 g/ha: 62.5 g ai/ha, read-out: Pigweed, Redroot damage rating (100=total damage to plant; 0=no damage to plant); for pest or weed control at 62.5 g/ha / pest or weed control at 250 g/ha: evaluated after 13 days; for pest or weed control at 250 g/ha: 250 g ai/ha, read-out: damage to plant, Pigweed, Redroot (100=total damage to plant; 0=no damage to plant)
In short: (§1)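 Sow in soil; grow 8 d (24/16 °C, 14 h light, 65% humidity); spray 15.625/62.5/250 g/ha in acetone:water 50:50 + 0.5% Tween 20; grow on, water twice daily; score damage 0–100 at 13 d.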

[2] = system: giant foxtail (Setaria faberi); assay: Test G Post-Emergence Protocol; conditions: Setaria faberi, post-emergence, 312 h; for pest or weed control at 15.625 g/ha: 15.625 g ai/ha, evaluated after 13 days (100=total damage to plant; 0=no damage to plant), read-out: Foxtail, Giant damage rating; for pest or weed control at 62.5 g/ha: 62.5 g ai/ha, read-out: Foxtail, Giant damage rating (100=total damage to plant; 0=no damage to plant); for pest or weed control at 62.5 g/ha / pest or weed control at 250 g/ha: evaluated after 13 days; for pest or weed control at 250 g/ha: 250 g ai/ha, read-out: damage to plant, Foxtail, Giant (100=total damage to plant; 0=no damage to plant)
In short: as §1

[3] = system: barnyardgrass (Echinochloa crus-galli); assay: Test G Post-Emergence Protocol; conditions: Echinochloa crus-galli, post-emergence, 312 h; for pest or weed control at 15.625 g/ha: 15.625 g ai/ha, evaluated after 13 days (100=total damage to plant; 0=no damage to plant), read-out: Barnyardgrass damage rating; for pest or weed control at 62.5 g/ha: 62.5 g ai/ha, read-out: Barnyardgrass damage rating (100=total damage to plant; 0=no damage to plant); for pest or weed control at 62.5 g/ha / pest or weed control at 250 g/ha: evaluated after 13 days; for pest or weed control at 250 g/ha: 250 g ai/ha, read-out: damage to plant, Barnyardgrass (100=total damage to plant; 0=no damage to plant)
In short: as §1

[4] = system: corn (Zea mays); assay: Test G Post-Emergence Protocol; conditions: Zea mays, post-emergence, 312 h; for plant injury at 15.625 g/ha: 15.625 g ai/ha, evaluated after 13 days (100=total damage to plant; 0=no damage to plant), read-out: Corn damage rating; for plant injury at 62.5 g/ha: 62.5 g ai/ha, read-out: Corn damage rating (100=total damage to plant; 0=no damage to plant); for plant injury at 62.5 g/ha / plant injury at 250 g/ha: evaluated after 13 days; for plant injury at 250 g/ha: 250 g ai/ha, read-out: damage to plant, Corn (100=total damage to plant; 0=no damage to plant)
In short: as §1

[5] = system: velvetleaf (Abutilon theophrasti); assay: Test G Post-Emergence Protocol; conditions: Abutilon theophrasti, post-emergence, 312 h; for pest or weed control at 15.625 g/ha: 15.625 g ai/ha, evaluated after 13 days (100=total damage to plant; 0=no damage to plant), read-out: Velvetleaf damage rating; for pest or weed control at 62.5 g/ha: 62.5 g ai/ha, read-out: Velvetleaf damage rating (100=total damage to plant; 0=no damage to plant); for pest or weed control at 62.5 g/ha / pest or weed control at 250 g/ha: evaluated after 13 days; for pest or weed control at 250 g/ha: 250 g ai/ha, read-out: damage to plant, Velvetleaf (100=total damage to plant; 0=no damage to plant)
In short: as §1

[6] = system: ivy-leaved morning glory (Ipomoea hederacea); assay: Test G Post-Emergence Protocol; conditions: Ipomoea, post-emergence, 312 h; for pest or weed control at 15.625 g/ha: 15.625 g ai/ha, evaluated after 13 days (100=total damage to plant; 0=no damage to plant), read-out: Morningglory, Ivy-leaved damage rating; for pest or weed control at 62.5 g/ha: 62.5 g ai/ha, read-out: Morningglory, Ivy-leaved damage rating (100=total damage to plant; 0=no damage to plant); for pest or weed control at 62.5 g/ha / pest or weed control at 250 g/ha: evaluated after 13 days; for pest or weed control at 250 g/ha: 250 g ai/ha, read-out: damage to plant, Morningglory, Ivy-leaved (100=total damage to plant; 0=no damage to plant)
In short: as §1

[7] = system: redroot pigweed (Amaranthus retroflexus); assay: Test G Pre-Emergence Protocol; conditions: Amaranthus retroflexus, pre-emergence, 312 h, evaluated after 13 days; for pest or weed control at 15.625 g/ha: 15.625 g ai/ha; for pest or weed control at 15.625 g/ha / pest or weed control at 250 g/ha: read-out: Pigweed, Redroot damage rating (100=total damage to plant; 0=no damage to plant); for pest or weed control at 62.5 g/ha: 62.5 g ai/ha, 100=total damage to plant, 0=no damage to plant, read-out: plant damage rating, Pigweed, Redroot; for pest or weed control at 250 g/ha: 250 g ai/ha
In short: (§2)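 Under a 24/16° C day/night regime with 14 h light and 65% humidity, sown pots were sprayed after one day with compound (15.625, 62.5 or 250 g/ha; 50:50 acetone/water, 0.5% Tween 20). Damage was assessed visually 13 days later, 0 to 100.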

[8] = system: giant foxtail (Setaria faberi); assay: Test G Pre-Emergence Protocol; conditions: Setaria faberi, pre-emergence, 312 h, evaluated after 13 days; for pest or weed control at 15.625 g/ha: 15.625 g ai/ha; for pest or weed control at 15.625 g/ha / pest or weed control at 250 g/ha: read-out: Foxtail, Giant damage rating (100=total damage to plant; 0=no damage to plant); for pest or weed control at 62.5 g/ha: 62.5 g ai/ha, 100=total damage to plant, 0=no damage to plant, read-out: plant damage rating, Foxtail, Giant; for pest or weed control at 250 g/ha: 250 g ai/ha
In short: as §2

[9] = system: barnyardgrass (Echinochloa crus-galli); assay: Test G Pre-Emergence Protocol; conditions: Echinochloa crus-galli, pre-emergence, 312 h, evaluated after 13 days; for pest or weed control at 15.625 g/ha: 15.625 g ai/ha, read-out: Barnyard grass damage rating (100=total damage to plant; 0=no damage to plant); for pest or weed control at 62.5 g/ha: 62.5 g ai/ha, 100=total damage to plant, 0=no damage to plant, read-out: plant damage rating, Barnyardgrass; for pest or weed control at 250 g/ha: 250 g ai/ha, read-out: Barnyardgrass damage rating (100=total damage to plant; 0=no damage to plant)
In short: as §2

[10] = system: corn (Zea mays); assay: Test G Pre-Emergence Protocol; conditions: Zea mays, pre-emergence, 312 h, evaluated after 13 days; for plant injury at 15.625 g/ha: 15.625 g ai/ha; for plant injury at 15.625 g/ha / plant injury at 250 g/ha: read-out: Corn damage rating (100=total damage to plant; 0=no damage to plant); for plant injury at 62.5 g/ha: 62.5 g ai/ha, 100=total damage to plant, 0=no damage to plant, read-out: plant damage rating, Corn; for plant injury at 250 g/ha: 250 g ai/ha
In short: as §2

[11] = system: velvetleaf (Abutilon theophrasti); assay: Test G Pre-Emergence Protocol; conditions: Abutilon theophrasti, pre-emergence, 312 h, evaluated after 13 days; for pest or weed control at 15.625 g/ha: 15.625 g ai/ha; for pest or weed control at 15.625 g/ha / pest or weed control at 250 g/ha: read-out: Velvetleaf damage rating (100=total damage to plant; 0=no damage to plant); for pest or weed control at 62.5 g/ha: 62.5 g ai/ha, 100=total damage to plant, 0=no damage to plant, read-out: plant damage rating, Velvetleaf; for pest or weed control at 250 g/ha: 250 g ai/ha
In short: as §2

[12] = system: ivy-leaved morning glory (Ipomoea hederacea); assay: Test G Pre-Emergence Protocol; conditions: Ipomoea, pre-emergence, 312 h, evaluated after 13 days; for pest or weed control at 15.625 g/ha: 15.625 g ai/ha, read-out: Morning-glory, Ivy-leaved damage rating (100=total damage to plant; 0=no damage to plant); for pest or weed control at 62.5 g/ha: 62.5 g ai/ha, 100=total damage to plant, 0=no damage to plant, read-out: plant damage rating, Morningglory, Ivy-leaved; for pest or weed control at 250 g/ha: 250 g ai/ha, read-out: Morningglory, Ivy-leaved damage rating (100=total damage to plant; 0=no damage to plant)
In short: as §2

SMILES | pest or weed control at 15.625 g/ha [1] [%] | pest or weed control at 62.5 g/ha [1] [%] | pest or weed control at 250 g/ha [1] [%] | pest or weed control at 15.625 g/ha [2] [%] | pest or weed control at 62.5 g/ha [2] [%] | pest or weed control at 250 g/ha [2] [%] | pest or weed control at 15.625 g/ha [3] [%] | pest or weed control at 62.5 g/ha [3] [%] | pest or weed control at 250 g/ha [3] [%] | plant injury at 15.625 g/ha [4] [%] | plant injury at 62.5 g/ha [4] [%] | plant injury at 250 g/ha [4] [%] | pest or weed control at 15.625 g/ha [5] [%] | pest or weed control at 62.5 g/ha [5] [%] | pest or weed control at 250 g/ha [5] [%] | pest or weed control at 15.625 g/ha [6] [%] | pest or weed control at 62.5 g/ha [6] [%] | pest or weed control at 250 g/ha [6] [%] | pest or weed control at 15.625 g/ha [7] [%] | pest or weed control at 62.5 g/ha [7] [%] | also measured
CN1C[C@@H](c2ccc(C(F)(F)F)cc2)[C@H](C(=O)Nc2cccc3cn[nH]c23)C1=O (racemic) [Compound 1605] | 0 | 20 | 30 | 0 | 0 | 10 | 0 | 0 | 30 | 0 | 0 | 10 | 0 | 0 | 10 | 0 | 0 | 0 | 0 | 0 | pest or weed control at 250 g/ha [7]: 0%; pest or weed control at 15.625 g/ha [8]: 0%; pest or weed control at 62.5 g/ha [8]: 0%; pest or weed control at 250 g/ha [8]: 0%; pest or weed control at 15.625 g/ha [9]: 0%; pest or weed control at 62.5 g/ha [9]: 0%; pest or weed control at 250 g/ha [9]: 0%; plant injury at 15.625 g/ha [10]: 0%; plant injury at 62.5 g/ha [10]: 0%; plant injury at 250 g/ha [10]: 0%; pest or weed control at 15.625 g/ha [11]: 0%; pest or weed control at 62.5 g/ha [11]: 0%; pest or weed control at 250 g/ha [11]: 0%; pest or weed control at 15.625 g/ha [12]: 0%; pest or weed control at 62.5 g/ha [12]: 0%; pest or weed control at 250 g/ha [12]: 0%
Cc1cc([C@@H]2CN(C)C(=O)[C@H]2C(=O)Nc2cccc(F)c2F)cnc1Cl (racemic) [Compound 1493] | 0 | 0 | 0 | 40 | 60 | 60 | 40 | 70 | 80 | 10 | 40 | 80 | 0 | 0 | 0 | 0 | 0 | 0 | 0 | 0 | pest or weed control at 250 g/ha [7]: 0%; pest or weed control at 15.625 g/ha [8]: 60%; pest or weed control at 62.5 g/ha [8]: 80%; pest or weed control at 250 g/ha [8]: 90%; pest or weed control at 15.625 g/ha [9]: 40%; pest or weed control at 62.5 g/ha [9]: 90%; pest or weed control at 250 g/ha [9]: 90%; plant injury at 15.625 g/ha [10]: 0%; plant injury at 62.5 g/ha [10]: 0%; plant injury at 250 g/ha [10]: 70%; pest or weed control at 15.625 g/ha [11]: 0%; pest or weed control at 62.5 g/ha [11]: 0%; pest or weed control at 250 g/ha [11]: 0%; pest or weed control at 15.625 g/ha [12]: 0%; pest or weed control at 62.5 g/ha [12]: 0%; pest or weed control at 250 g/ha [12]: 10%
